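Exposure lasted 48 hours, with cells grown in 96-well plates and compounds tested at five concentrations. TGI: total growth inhibition.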
Experiments:
Assay in all cases: NCI tumour cell line growth inhibition, 48 h
[1] = system: A498 renal
[2] = system: A549 NSCLC
[3] = system: CAKI-1 renal
[4] = system: CCRF-CEM leukemia
[5] = system: COLO 205 colon
[6] = system: DLD-1 colon
[7] = system: DMS 273 small cell lung
[8] = system: EKVX NSCLC
[9] = system: HCC-2998 colon
[10] = system: HCT-116 colon
[11] = system: HCT-15 colon
[12] = system: HL-60(TB) leukemia
[13] = system: HOP-18 NSCLC
[14] = system: HOP-62 NSCLC
[15] = system: HOP-92 NSCLC
[16] = system: HT29 colon
[17] = system: IGROV1 ovarian
[18] = system: K-562 leukemia
[19] = system: KM12 colon
[20] = system: KM20L2 colon
[21] = system: LOX IMVI melanoma
[22] = system: M19-MEL melanoma
[23] = system: MALME-3M melanoma
[24] = system: MCF7 breast
[25] = system: MOLT-4 leukemia
[26] = system: NCI-H226 lung
[27] = system: NCI-H23 lung
[28] = system: NCI-H460 lung
[29] = system: NCI-H522 lung
[30] = system: NCI/ADR-RES ovarian
[31] = system: OVCAR-3 ovarian
[32] = system: OVCAR-4 ovarian
[33] = system: OVCAR-5 ovarian
[34] = system: OVCAR-8 ovarian
[35] = system: P388 leukemia
[36] = system: P388/ADR leukemia
[37] = system: RPMI-8226 leukemia
[38] = system: RXF 393 renal
[39] = system: SF-268 CNS
[40] = system: SF-295 CNS
[41] = system: SF-539 CNS
[42] = system: SK-MEL-2 melanoma
[43] = system: SK-MEL-28 melanoma
[44] = system: SK-MEL-5 melanoma
[45] = system: SK-OV-3 ovarian
[46] = system: SN12C renal
[47] = system: SN12K1 renal
[48] = system: SNB-19 CNS
[49] = system: SNB-75 CNS
[50] = system: SNB-78 CNS
[51] = system: SW-620 colon
[52] = system: U251 CNS
[53] = system: UACC-257 melanoma
[54] = system: UACC-62 melanoma
[55] = system: UO-31 renal
[56] = system: XF 498 CNS
[57] = system: DMS 114 small cell lung

COc1ccc(Cc2nn(C3OC(COC(C)=O)C(OC(C)=O)C(OC(C)=O)C3OC(C)=O)c(=S)n(-c3ccc(OC)cc3)c2=O)cc1 (stereo not drawn) gave a TGI [1] greater than 100 µM, a TGI [2] greater than 100 µM and a TGI [3] greater than 100 µM. It also gave a TGI [4] greater than 100 µM, a TGI [5] greater than 100 µM and a TGI [6] greater than 100 µM. For the same compound, the TGI [7] was greater than 100 µM, the TGI [8] was greater than 100 µM and the TGI [9] was greater than 100 µM. The TGI [10] was greater than 100 µM, the TGI [11] was greater than 100 µM and the TGI [12] was greater than 100 µM. It also gave a TGI [13] greater than 100 µM, a TGI [14] greater than 100 µM and a TGI [15] greater than 100 µM. For the same compound, the TGI [16] was greater than 100 µM, the TGI [17] was greater than 100 µM and the TGI [18] was greater than 100 µM. The TGI [19] was greater than 100 µM, the TGI [20] was greater than 100 µM and the TGI [21] was greater than 100 µM. For the same compound, the TGI [22] was greater than 100 µM, the TGI [23] was greater than 100 µM and the TGI [24] was greater than 100 µM. For the same compound, the TGI [25] was greater than 100 µM, the TGI [26] was greater than 100 µM and the TGI [27] was greater than 100 µM. For the same compound, the TGI [28] was greater than 100 µM, the TGI [29] was greater than 100 µM and the TGI [30] was greater than 100 µM. The TGI [31] was greater than 100 µM, the TGI [32] was greater than 100 µM and the TGI [33] was greater than 100 µM. For the same compound, the TGI [34] was greater than 100 µM, the TGI [35] was greater than 100 µM and the TGI [36] was greater than 100 µM. It also gave a TGI [37] greater than 100 µM, a TGI [38] greater than 100 µM and a TGI [39] greater than 100 µM. The TGI [40] was greater than 100 µM, the TGI [41] was greater than 100 µM and the TGI [42] was greater than 100 µM. It also gave a TGI [43] greater than 100 µM, a TGI [44] greater than 100 µM and a TGI [45] greater than 100 µM. The TGI [46] was greater than 100 µM, the TGI [47] was greater than 100 µM and the TGI [48] was greater than 100 µM. The TGI [49] was greater than 92.2 µM, the TGI [50] was greater than 100 µM and the TGI [51] was greater than 100 µM. It also gave a TGI [52] greater than 100 µM, a TGI [53] greater than 100 µM and a TGI [54] greater than 100 µM. It also gave a TGI [55] greater than 100 µM and a TGI [56] greater than 100 µM.
With Oc1c(CNCCCN2CCCC2)cc(Cl)c2cccnc12 the TGI [1] was 29.9 µM, the TGI [2] was 11.3 µM and the TGI [3] was 12.5 µM. It also gave a TGI [4] of 13.6 µM, a TGI [5] of 15.2 µM and a TGI [6] of 15 µM. For the same compound, the TGI [57] was 9.24 µM, the TGI [7] was 10.4 µM and the TGI [8] was 12.4 µM. The TGI [9] was 10.2 µM, the TGI [10] was 12.8 µM and the TGI [11] was 16.2 µM. It also gave a TGI [12] of 5.91 µM, a TGI [13] of 20.6 µM and a TGI [14] of 7.24 µM. It also gave a TGI [15] of 33.7 µM, a TGI [16] of 17.3 µM and a TGI [17] of 20.7 µM. It also gave a TGI [18] of 7.38 µM, a TGI [19] of 28.8 µM and a TGI [20] of 14.4 µM. For the same compound, the TGI [21] was 15.3 µM, the TGI [22] was 9.61 µM and the TGI [23] was 17.4 µM. For the same compound, the TGI [24] was 15.9 µM, the TGI [25] was 11.7 µM and the TGI [26] was 19.2 µM. It also gave a TGI [27] of 23.9 µM, a TGI [28] of 10.6 µM and a TGI [29] of 12.4 µM. The TGI [30] was 7.68 µM, the TGI [31] was 11.9 µM and the TGI [32] was 16.9 µM. The TGI [33] was 8.37 µM, the TGI [34] was 15.7 µM and the TGI [35] was 9.18 µM. The TGI [36] was 6.32 µM, the TGI [37] was 16.3 µM and the TGI [38] was 25.2 µM. For the same compound, the TGI [39] was 18.4 µM, the TGI [40] was 5.49 µM and the TGI [41] was 10.1 µM. It also gave a TGI [42] of 26.2 µM, a TGI [43] of 23.6 µM and a TGI [44] of 5.77 µM. The TGI [45] was 15 µM, the TGI [46] was 24.6 µM and the TGI [47] was 4.1 µM. It also gave a TGI [48] greater than 100 µM, a TGI [49] of 36.3 µM and a TGI [50] of 33.5 µM. For the same compound, the TGI [51] was 17.1 µM, the TGI [52] was 17 µM and the TGI [53] was 24.2 µM. It also gave a TGI [54] of 5.79 µM, a TGI [55] of 21.3 µM and a TGI [56] of 15.2 µM.

— PubChem BioAssay (NCI)
